Results as given in patent US20070049593A1 (priority 2004, published 2007).
Where a name gives a salt, the structure may show the parent alone.

Molecular target: T1, HCV polymerase (Hepatitis C virus genotype 1b, UniProt P26663)
T1 construct: a region encoding NS5B (J Virol 1991 March, 65(3), 1105-13, 544 amino acids after deletion of 47 amino acids on the C-terminal); 6xHis (C); made in house; host or cells: Escherichia coli
Test: biochemical
Set-up: species or system HCV BK strain
Method in brief: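 His-tagged NS5B (BK strain, 47-aa C-terminal deletion, E. coli-expressed) at 0.5 μg/ml copied 5 μg/ml run-off RNA bearing the HCV 3′ UTR with 2 μM UTP plus [3H]UTP, 50 μM ATP/GTP, in pH 7.5 Tris with 5 mM MgCl2, 25 °C, 90 min. TCA-precipitated RNA was counted and IC50 calculated.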

T1 sequence (P26663 2420-2963): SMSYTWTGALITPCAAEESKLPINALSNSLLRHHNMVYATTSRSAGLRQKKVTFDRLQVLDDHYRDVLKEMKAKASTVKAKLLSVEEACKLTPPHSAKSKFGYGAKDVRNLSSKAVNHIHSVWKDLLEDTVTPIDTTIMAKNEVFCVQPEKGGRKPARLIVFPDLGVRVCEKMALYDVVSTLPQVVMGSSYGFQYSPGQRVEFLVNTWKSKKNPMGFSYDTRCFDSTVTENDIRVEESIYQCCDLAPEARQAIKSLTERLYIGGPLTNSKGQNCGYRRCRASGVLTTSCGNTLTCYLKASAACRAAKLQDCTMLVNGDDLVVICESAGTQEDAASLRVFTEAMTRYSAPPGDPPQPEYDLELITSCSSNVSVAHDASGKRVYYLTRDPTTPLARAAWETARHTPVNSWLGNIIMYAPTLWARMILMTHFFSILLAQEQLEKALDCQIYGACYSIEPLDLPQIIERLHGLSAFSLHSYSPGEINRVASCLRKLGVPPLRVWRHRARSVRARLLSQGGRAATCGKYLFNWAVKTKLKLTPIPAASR

SMILES	IC50 [nM]
COc1ccc2c(c1)OCCn1c-2c(C2CCCCC2)c2ccc(C(=O)N[C@@H](Cc3ccc(OCc4ccccc4)cc3)c3noc(C)n3)cc21 [Example 2-542, N—[(S)-2-(4-benzyloxyphenyl)-1-(5-methyl-1,2,4-oxadiazol-3-yl)ethyl]-12-cyclohexyl-3-methoxy-6,7-dihydro-5-oxa-7a-azadibenzo[a,e]azulene-9-carboxamide]	< 100
COc1ccc2c(c1)OCCn1c-2c(C2CCCCC2)c2ccc(C(=O)NC3(C(=O)Nc4ccc(/C=C/C(N)=O)cc4)CCC3)cc21 [Example 2-543, N-{1-[4-((E)-2-carbamoylvinyl)phenylcarbamoyl]cyclobutyl}-12-cyclohexyl-3-methoxy-6,7-dihydro-5-oxa-7a-azadibenzo[a,e]azulene-9-carboxamide]	< 100
CNC(=O)/C=C/c1ccc(NC(=O)C2(NC(=O)c3ccc4c(C5CCCCC5)c5n(c4c3)CCOc3cc(OC)ccc3-5)CCC2)cc1 [Example 2-544, N-{1-[4-((E)-2-methylcarbamoylvinyl)phenylcarbamoyl]cyclobutyl}-12-cyclohexyl-3-methoxy-6,7-dihydro-5-oxa-7a-azadibenzo[a,e]azulene-9-carboxamide]	< 100
COc1ccc2c(c1)OCCn1c-2c(C2CCCCC2)c2ccc(C(=O)NC(C)(C)c3ncc(-c4ccc(CO)cc4)[nH]3)cc21 [Example 2-545, N-{1-[5-(4-hydroxymethylphenyl)-1H-imidazol-2-yl]-1-methylethyl}-12-cyclohexyl-3-methoxy-6,7-dihydro-5-oxa-7a-azadibenzo[a,e]azulene-9-carboxamide]	< 100
COc1ccc2c(c1)OCCn1c-2c(C2CCCCC2)c2ccc(C(=O)NC(C)(C)c3ncc(-c4ccc(C(N)=O)cc4)[nH]3)cc21 [Example 2-546, N-{1-[5-(4-carbamoylphenyl)-1H-imidazol-2-yl]-1-methylethyl}-12-cyclohexyl-3-methoxy-6,7-dihydro-5-oxa-7a-azadibenzo[a,e]azulene-9-carboxamide]	< 100
CNC(=O)c1ccc(-c2cnc(C(C)(C)NC(=O)c3ccc4c(C5CCCCC5)c5n(c4c3)CCOc3cc(OC)ccc3-5)[nH]2)cc1 [Example 2-547, N-{1-methyl-1-[5-(4-methylcarbamoylphenyl)-1H-imidazol-2-yl]ethyl}-12-cyclohexyl-3-methoxy-6,7-dihydro-5-oxa-7a-azadibenzo[a,e]azulene-9-carboxamide]	< 100
COc1ccc2c(c1)OCCn1c-2c(C2CCCCC2)c2ccc(C(=O)NC(C)(C)c3ncc(-c4ccc(/C=C/C(=O)O)cc4)[nH]3)cc21 [Example 2-548, (E)-3-[4-(2-{1-[(12-cyclohexyl-3-methoxy-6,7-dihydro-5-oxa-7a-azadibenzo[a,e]azulene-9-carbonyl)amino]-1-methylethyl}-3H-imidazol-4-yl)phenyl]acrylic acid]	< 100
O=C(CN1CCCCC1)Nc1ccccc1-c1cccc2c1OCCn1c-2c(C2CCCCC2)c2ccc(C(=O)O)cc21 [Example 2-549, 12-cyclohexyl-4-{2-[2-(piperidin-1-yl)acetylamino]phenyl}-6,7-dihydro-5-oxa-7a-azadibenzo[a,e]azulene-9-carboxylic acid]	< 100
COc1ccc2c(c1)OCCn1c-2c(C2CCCCC2)c2ccc(C(=O)NC3(C(=O)Nc4cccc(/C=C/C(=O)O)c4)CCC3)cc21 [Example 2-550, (E)-3-[3-({1-[(12-cyclohexyl-3-methoxy-6,7-dihydro-5-oxa-7a-azadibenzo[a,e]azulene-9-carbonyl)amino]cyclobutanecarbonyl}amino)phenyl]acrylic acid]	< 100
CCOc1ccc2c(c1)OCCn1c-2c(C2CCCCC2)c2ccc(C(=O)NC3(C(=O)Nc4cccc(/C=C/C(=O)O)c4)CCC3)cc21 [Example 2-551, (E)-3-[3-({1-[(12-cyclohexyl-3-ethoxy-6,7-dihydro-5-oxa-7a-azadibenzo[a,e]azulene-9-carbonyl)amino]cyclobutanecarbonyl}amino)phenyl]acrylic acid]	< 100
CCOc1ccc2c(c1)OCCn1c-2c(C2CCCCC2)c2ccc(C(=O)NC3(C(=O)Nc4ccc(/C=C/C(=O)O)cc4OC)CCC3)cc21 [Example 2-552, (E)-3-[4-({1-[(12-cyclohexyl-3-ethoxy-6,7-dihydro-5-oxa-7a-azadibenzo[a,e]azulene-9-carbonyl)amino]cyclobutanecarbonyl}amino)-3-methoxyphenyl]acrylic acid]	< 100
O=C(O)c1ccc2c(C3CCCCC3)c3n(c2c1)CCOc1c(-c2ccccc2CCN2CCCCC2)cccc1-3 [Example 2-553, 12-cyclohexyl-4-{2-[2-(piperidin-1-yl)ethyl]phenyl}-6,7-dihydro-5-oxa-7a-azadibenzo[a,e]azulene-9-carboxylic acid monohydrochloride]	< 100
O=C(O)c1ccc2c(C3CCCCC3)c3n(c2c1)CCOc1c(-c2ccccc2NCCN2CCCCC2)cccc1-3 [Example 2-554, 12-cyclohexyl-4-{2-[2-(piperidin-1-yl)ethylamino]phenyl}-6,7-dihydro-5-oxa-7a-azadibenzo[a,e]azulene-9-carboxylic acid dihydrochloride]	< 100
CC(C)Oc1ccc2c(c1)OCCn1c-2c(C2CCCCC2)c2ccc(C(=O)O)cc21 [Example 2-555, 12-cyclohexyl-3-isopropoxy-6,7-dihydro-5-oxa-7a-azadibenzo[a,e]azulene-9-carboxylic acid]	< 100
CC(C)Oc1ccc2c(c1)OCCn1c-2c(C2CCCCC2)c2ccc(C(=O)NC3(C(=O)Nc4ccc(/C=C/C(=O)O)cc4)CCC3)cc21 [Example 2-556, (E)-3-[4-({1-[(12-cyclohexyl-3-isopropoxy-6,7-dihydro-5-oxa-7a-azadibenzo[a,e]azulene-9-carbonyl)amino]cyclobutanecarbonyl}amino)phenyl]acrylic acid]	< 100
CN(C)C(=O)C1Cn2c(c(C3CCCCC3)c3ccc(C(=O)O)cc32)-c2ccccc2O1 (stereo not shown) [Example 3-4, 12-cyclohexyl-6-dimethylcarbamoyl-6,7-dihydro-5-oxa-7a-azadibenzo[a,e]azulene-9-carboxylic acid]	< 100
O=C(O)c1ccc2c(C3CCCCC3)c3n(c2c1)COc1ccccc1-3 [Example 4-2, 11-cyclohexyl-5-oxa-6a-azabenzo[a]fluorene-8-carboxylic acid]	100 to 1000
O=C(O)c1ccc2c(C3CCCCC3)c3n(c2c1)CCCc1ccccc1-3 [Example 5-2, 13-cyclohexyl-6,7-dihydro-5H-benzo[3,4]azepino[1,2-a]indole-10-carboxylic acid]	< 100
O=C(O)c1ccc2c(C3CCCCC3)c3n(c2c1)Cc1ccccc1-3 [Example 5-3, 11-cyclohexyl-6H-isoindolo[2,1-a]indole-3-carboxylic acid]	100 to 1000
O=C(O)c1ccc2c(C3CCCCC3)c3n(c2c1)CCc1ccccc1-3 [Example 5-4, 12-cyclohexyl-5,6-dihydroindolo[2,1-a]isoquinoline-9-carboxylic acid]	100 to 1000
O=C(O)c1ccc2c(C3CCCCC3)c3n(c2c1)C(O)c1ccccc1-3 (stereo not shown) [Example 5-6, 11-cyclohexyl-6-hydroxy-6H-isoindolo[2,1-a]indole-3-carboxylic acid]	100 to 1000
O=C(O)c1ccc2c(C3CCCCC3)c3n(c2c1)CCCn1cccc1-3 [Example 6-2, 13-cyclohexyl-6,7-dihydro-5H-pyrrolo[2′,1′:3,4][1,4]diazepino[1,2-a]indole-10-carboxylic acid]	100 to 1000
O=C(O)c1ccc2c(C3CCCCC3)c3n(c2n1)CCOc1cc(OCc2cc(N4CCCC4=O)ccc2N2CCOCC2)ccc1-3 [Example 7-4, 12-cyclohexyl-3-[2-(morpholin-4-yl)-5-(2-oxopyrrolidin-1-yl)benzyloxy]-6,7-dihydro-5-oxa-7a,8-diazadibenzo[a,e]azulene-9-carboxylic acid dihydrochloride]	< 100
CS(=O)(=O)c1ccc(N2CCOCC2)c(COc2ccc3c(c2)OCCn2c-3c(C3CCCCC3)c3ccc(C(=O)O)nc32)c1 [Example 7-5, 12-cyclohexyl-3-[5-methanesulfonyl-2-(morpholin-4-yl)benzyloxy]-6,7-dihydro-5-oxa-7a,8-diazadibenzo[a,e]azulene-9-carboxylic acid monohydrochloride]	< 100
CC(=O)N(C)c1ccc(N2CCOCC2)c(COc2ccc3c(c2)OCCn2c-3c(C3CCCCC3)c3ccc(C(=O)O)nc32)c1 [Example 7-6, 3-[5-(N-acetyl-N-methylamino)-2-(morpholin-4-yl)benzyloxy]-12-cyclohexyl-6,7-dihydro-5-oxa-7a,8-diazadibenzo[a,e]azulene-9-carboxylic acid dihydrochloride]	< 100
CS(=O)(=O)N1CCN(c2ccc(N3CCCC3=O)cc2COc2ccc3c(c2)OCCn2c-3c(C3CCCCC3)c3ccc(C(=O)O)nc32)CC1 [Example 7-7, 12-cyclohexyl-3-[2-(4-methanesulfonylpiperazin-1-yl)-5-(2-oxopyrrolidin-1-yl)benzyloxy]-6,7-dihydro-5-oxa-7a,8-diazadibenzo[a,e]azulene-9-carboxylic acid dihydrochloride]	< 100
O=C(O)c1ccc2c(C3CCCCC3)c3n(c2n1)CCOc1cc(OCc2ccccc2)ccc1-3 [Example 7-8, 3-benzyloxy-12-cyclohexyl-6,7-dihydro-5-oxa-7a,8-diazadibenzo[a,e]azulene-9-carboxylic acid]	< 100
COc1ccc2c(c1)OCCn1c-2c(C2CCCCC2)c2ccc(C(=O)O)nc21 [Example 7-9, 12-cyclohexyl-3-methoxy-6,7-dihydro-5-oxa-7a,8-diazadibenzo[a,e]azulene-9-carboxylic acid]	< 100
